Experimental data: ChEMBL document CHEMBL1938349 (Bioorg Med Chem, 2012)

Tests used:
[1] = target: T1, Alpha-2C adrenergic receptor (Homo sapiens, UniProt P18825); assay: Displacement of [3H]clonidine from human Alpha-2C receptor by liquid scintillation counting
T1 sequence (P18825 whole entry): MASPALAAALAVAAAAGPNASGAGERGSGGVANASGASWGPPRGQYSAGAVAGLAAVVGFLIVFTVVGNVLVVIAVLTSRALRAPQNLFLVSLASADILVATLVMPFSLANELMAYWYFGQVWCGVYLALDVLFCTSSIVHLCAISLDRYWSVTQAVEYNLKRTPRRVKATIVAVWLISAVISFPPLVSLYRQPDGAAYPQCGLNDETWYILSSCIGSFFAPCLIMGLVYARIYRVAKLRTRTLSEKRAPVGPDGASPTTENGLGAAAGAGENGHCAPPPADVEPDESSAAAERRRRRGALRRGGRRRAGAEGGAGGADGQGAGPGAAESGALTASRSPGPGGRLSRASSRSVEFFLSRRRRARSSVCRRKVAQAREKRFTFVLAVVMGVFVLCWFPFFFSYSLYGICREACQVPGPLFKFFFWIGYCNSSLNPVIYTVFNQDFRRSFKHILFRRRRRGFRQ

D(2) dopamine receptor = D(2) dopamine receptor (Homo sapiens, UniProt P14416); assay: Displacement of [3H]N-methylspiperone from human dopamine D2 receptor by liquid scintillation counting
D(2) dopamine receptor, sequence (P14416 whole entry): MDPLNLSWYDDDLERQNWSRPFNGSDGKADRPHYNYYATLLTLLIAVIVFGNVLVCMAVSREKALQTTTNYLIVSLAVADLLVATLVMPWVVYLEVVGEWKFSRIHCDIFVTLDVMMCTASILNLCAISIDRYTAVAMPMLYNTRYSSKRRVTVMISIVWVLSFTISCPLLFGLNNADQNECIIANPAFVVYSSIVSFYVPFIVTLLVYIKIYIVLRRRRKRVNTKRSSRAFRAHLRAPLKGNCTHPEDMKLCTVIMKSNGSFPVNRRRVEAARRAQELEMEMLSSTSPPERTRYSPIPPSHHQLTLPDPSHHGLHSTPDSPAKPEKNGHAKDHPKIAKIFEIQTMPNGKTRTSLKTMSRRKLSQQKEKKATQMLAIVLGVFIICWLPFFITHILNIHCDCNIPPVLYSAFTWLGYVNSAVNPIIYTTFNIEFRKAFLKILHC

D(3) dopamine receptor = D(3) dopamine receptor (Homo sapiens, UniProt P35462); assay: Displacement of [3H]N-methylspiperone from human dopamine D3 receptor by liquid scintillation counting
D(3) dopamine receptor, sequence (P35462 whole entry): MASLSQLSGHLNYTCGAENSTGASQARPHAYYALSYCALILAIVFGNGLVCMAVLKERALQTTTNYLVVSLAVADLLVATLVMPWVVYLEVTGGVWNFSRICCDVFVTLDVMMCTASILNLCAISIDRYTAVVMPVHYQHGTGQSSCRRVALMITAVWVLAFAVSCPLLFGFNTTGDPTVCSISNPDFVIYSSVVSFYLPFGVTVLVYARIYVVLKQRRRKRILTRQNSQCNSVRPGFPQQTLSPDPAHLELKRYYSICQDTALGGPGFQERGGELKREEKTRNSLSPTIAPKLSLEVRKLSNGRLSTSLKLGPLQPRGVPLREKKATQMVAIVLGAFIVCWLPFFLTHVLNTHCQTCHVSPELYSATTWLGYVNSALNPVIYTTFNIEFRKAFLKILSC

[2] = target: T2, 5-hydroxytryptamine receptor 1A (Homo sapiens, UniProt P08908); assay: Displacement of [3H]8-OH-DPAT from human 5HT1A receptor by liquid scintillation counting
T2 sequence (P08908 whole entry): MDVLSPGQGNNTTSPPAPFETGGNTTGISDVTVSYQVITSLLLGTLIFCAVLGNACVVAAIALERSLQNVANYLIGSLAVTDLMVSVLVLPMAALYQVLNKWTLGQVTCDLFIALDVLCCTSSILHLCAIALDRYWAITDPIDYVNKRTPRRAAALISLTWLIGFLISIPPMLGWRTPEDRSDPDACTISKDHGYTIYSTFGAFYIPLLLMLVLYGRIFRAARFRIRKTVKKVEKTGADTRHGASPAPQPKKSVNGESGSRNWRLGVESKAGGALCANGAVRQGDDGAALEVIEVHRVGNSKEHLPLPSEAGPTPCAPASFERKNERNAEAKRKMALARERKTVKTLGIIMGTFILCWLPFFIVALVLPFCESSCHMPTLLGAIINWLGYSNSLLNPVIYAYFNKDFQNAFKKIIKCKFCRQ

D(4) dopamine receptor = target: T3, D(4) dopamine receptor (Rattus norvegicus, UniProt P30729); assay: Displacement of [3H]N-methylspiperone from rat dopamine D4 receptor by liquid scintillation counting
T3 sequence (P30729 whole entry): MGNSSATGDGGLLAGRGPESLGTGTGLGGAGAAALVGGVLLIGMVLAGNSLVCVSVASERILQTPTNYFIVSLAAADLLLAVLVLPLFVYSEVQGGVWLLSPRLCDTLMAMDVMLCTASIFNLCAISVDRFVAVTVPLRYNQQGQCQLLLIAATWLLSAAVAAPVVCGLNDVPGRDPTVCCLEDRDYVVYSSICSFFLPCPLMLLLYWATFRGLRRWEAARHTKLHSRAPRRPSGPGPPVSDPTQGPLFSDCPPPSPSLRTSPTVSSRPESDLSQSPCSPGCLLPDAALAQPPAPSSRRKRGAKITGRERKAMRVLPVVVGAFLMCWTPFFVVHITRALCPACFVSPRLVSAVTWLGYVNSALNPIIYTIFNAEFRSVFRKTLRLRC

[3] = target: T4, 5-hydroxytryptamine receptor 2C (Rattus norvegicus, UniProt P08909); assay: Displacement of [3H]mesulergine from rat 5HT2C receptor by liquid scintillation counting
T4 sequence (P08909 whole entry): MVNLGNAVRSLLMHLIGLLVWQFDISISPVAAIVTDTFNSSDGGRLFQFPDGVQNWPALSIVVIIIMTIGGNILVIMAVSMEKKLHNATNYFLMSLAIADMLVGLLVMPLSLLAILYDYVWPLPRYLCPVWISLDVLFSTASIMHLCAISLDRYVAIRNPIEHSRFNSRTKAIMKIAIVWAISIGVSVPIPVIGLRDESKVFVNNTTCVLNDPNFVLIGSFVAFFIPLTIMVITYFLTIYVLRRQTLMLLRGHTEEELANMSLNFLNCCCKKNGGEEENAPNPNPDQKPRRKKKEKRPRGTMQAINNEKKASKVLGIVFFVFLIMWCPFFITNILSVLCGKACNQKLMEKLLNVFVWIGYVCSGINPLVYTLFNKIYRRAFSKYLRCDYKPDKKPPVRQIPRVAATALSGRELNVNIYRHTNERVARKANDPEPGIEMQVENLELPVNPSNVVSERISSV

[4] = target: 5-hydroxytryptamine receptor 2A (Homo sapiens, UniProt P28223); assay: Displacement of [3H]DOI from human 5HT2A receptor after 1 hr by liquid scintillation counting
5-hydroxytryptamine receptor 2A, sequence (P28223 whole entry): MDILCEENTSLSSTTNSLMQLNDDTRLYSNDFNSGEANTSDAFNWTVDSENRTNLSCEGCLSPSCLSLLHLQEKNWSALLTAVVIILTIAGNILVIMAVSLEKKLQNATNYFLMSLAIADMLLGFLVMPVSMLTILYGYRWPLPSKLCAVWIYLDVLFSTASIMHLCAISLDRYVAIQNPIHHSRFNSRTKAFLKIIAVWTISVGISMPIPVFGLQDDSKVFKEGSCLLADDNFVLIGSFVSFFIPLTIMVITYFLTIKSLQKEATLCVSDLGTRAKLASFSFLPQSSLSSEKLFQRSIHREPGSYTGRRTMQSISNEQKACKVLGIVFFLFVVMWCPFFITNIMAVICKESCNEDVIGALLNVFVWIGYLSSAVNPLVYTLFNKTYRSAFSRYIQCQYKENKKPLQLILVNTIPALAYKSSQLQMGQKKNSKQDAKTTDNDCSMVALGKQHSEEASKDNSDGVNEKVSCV

Histamine H1 receptor = Histamine H1 receptor (Homo sapiens, UniProt P35367)
Histamine H1 receptor, sequence (P35367 whole entry): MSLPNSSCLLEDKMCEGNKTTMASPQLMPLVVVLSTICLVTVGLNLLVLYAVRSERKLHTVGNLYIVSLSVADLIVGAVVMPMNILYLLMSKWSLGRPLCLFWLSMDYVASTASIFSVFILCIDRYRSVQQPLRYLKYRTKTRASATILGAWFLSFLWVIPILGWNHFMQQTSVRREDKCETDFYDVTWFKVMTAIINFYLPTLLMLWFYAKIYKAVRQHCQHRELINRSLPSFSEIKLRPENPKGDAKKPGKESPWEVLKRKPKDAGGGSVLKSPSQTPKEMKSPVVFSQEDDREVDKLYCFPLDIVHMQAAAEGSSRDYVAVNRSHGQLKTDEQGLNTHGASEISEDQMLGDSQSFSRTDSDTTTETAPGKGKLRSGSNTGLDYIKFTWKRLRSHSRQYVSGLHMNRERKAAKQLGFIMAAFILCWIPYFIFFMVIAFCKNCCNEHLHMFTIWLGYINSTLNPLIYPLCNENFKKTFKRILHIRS
Description: Displacement of [3H]pyrilamine from human H1 receptor by liquid scintillation counting

SMILES	Ki [1] [nM]	Ki (D(2) dopamine receptor) [nM]	Ki (D(3) dopamine receptor) [nM]	Ki [2] [nM]	Ki (D(4) dopamine receptor) [nM]	Ki [3] [nM]	Ki [4] [nM]	Ki (Histamine H1 receptor) [nM]
O=C(CCCN1CCN(c2ncccn2)CC1)c1ccc(F)cc1	80	–	–	–	–	–	–	–
OC1(c2ccc(Cl)cc2)CCN(CCCOc2ccc(F)cc2)CC1	–	5.3	182	–	–	–	–	–
Fc1ccc(SCCCN2CCC(c3ccc(Cl)cc3)CC2)cc1	–	185	130	454	39	> 10000	112	–
Fc1ccc(OCCCN2CCC(c3ccc(Cl)cc3)CC2)cc1	–	41	696	169	9.5	> 10000	121	–
[O-][S+](CCCN1CCC(c2ccc(Cl)cc2)CC1)c1ccc(F)cc1 (stereo not drawn)	–	998	243	613	35	> 10000	222	–
Fc1ccc(CCCCN2CCN(c3ccc(Cl)cc3)CC2)cc1	–	–	261	112	7.8	–	81	–
Fc1ccc(SCCCN2CCN(c3ccc(Cl)cc3)CC2)cc1	–	211	422	166	8.7	–	53	–
Fc1ccc(SCCCN2CCN(c3ccc(C(F)(F)F)cc3)CC2)cc1	–	4750	544	1080	89	–	1130	–
Fc1ccc(OCCCN2CCN(c3ccc(Cl)cc3)CC2)cc1	–	390	885	80	6.9	–	60	–
Fc1ccc(OCCCN2CCN(c3ccccc3)CC2)cc1	–	37	207	24	7.4	–	57.6	62.9
Clc1ccc(N2CCN(CCCOc3ccccc3)CC2)cc1	–	447	726	154	5.6	–	–	–
c1ccc(OCCCN2CCN(c3ccccc3)CC2)cc1	–	119	79.3	25	4.5	–	46	67.9
Fc1ccc(SCCCN2CCN(c3ncccn3)CC2)cc1	–	424	68	93.1	21	8830	27	–
Fc1ccc(OCCCN2CCN(c3ncccn3)CC2)cc1	–	636	778	23	4.2	> 10000	23	–
Fc1ccc(CCCCN2CCN(c3ccccn3)CC2)cc1	308	–	–	–	–	–	–	167
Fc1ccc(SCCCN2CCN(c3ccccn3)CC2)cc1	45.1	–	–	–	–	–	–	212
Fc1ccc(OCCCN2CCN(c3ccccn3)CC2)cc1	–	–	–	–	–	–	–	262
